Patent US6479499B1
In brackets after ≈: the same amount, converted by molar mass. Where two headings read alike, the source gives them in different places. One block for each molecule: values may come before it.

Tests used:
[1] = test system: glioblastoma (U-87-MG); experiment: In vitro cytotoxicity, U-87-MG; settings: Homo sapiens; for IC50: 96 h, read-out: ED50 U-87-MG; for inhibition at 20 µg/mL: read-out: Inhibition at highest test concentration (in brackets), U-87-MG
[2] = test system: ileocecal carcinoma (HCT-8); experiment: In vitro cytotoxicity, HCT-8; settings: Homo sapiens; for IC50: HCT-8, 96 h, read-out: ED50 HCT-8
[3] = test system: lung carcinoma (A-549); experiment: In vitro cytotoxicity, A-549; settings: Homo sapiens; for IC50: A549, 96 h, read-out: ED50 A-549
[4] = test system: prostate cancer (PC3); experiment: In vitro cytotoxicity, PC3; settings: Homo sapiens; for IC50: 96 h, read-out: ED50 PC3; for inhibition at 20 µg/mL: read-out: Inhibition at highest test concentration (in brackets), PC3
[5] = test system: bone (HOS); experiment: In vitro cytotoxicity, HOS; settings: Homo sapiens; for IC50: 96 h, read-out: ED50 HOS; for inhibition at 20 µg/mL: read-out: Inhibition at highest test concentration (in brackets), HOS
[6] = test system: human ovarian cancer (1A9); experiment: In vitro cytotoxicity, 1A9; settings: 96 h, read-out: ED50 1A9
[7] = test system: melanoma (SKMEL-2); experiment: In vitro cytotoxicity, SKMEL-2; settings: for IC50 / inhibition at 20 µg/mL: Homo sapiens; for IC50: SK-MEL-2, 96 h, read-out: ED50 SKMEL-2; for inhibition at 20 µg/mL: SK-MEL-2, read-out: Inhibition at highest test concentration (in brackets), SKMEL-2
[8] = test system: ten human tumor cell lines; experiment: In vitro cytotoxicity, statements on the panel of tumor cell lines
[9] = test system: epidermoid carcinoma of the nasopharynx (KB); experiment: In vitro cytotoxicity, KB; settings: Homo sapiens; for IC50: 96 h, read-out: ED50 KB
[10] = test system: bovine brain tubulin; experiment: Tubulin polymerization assay (antimicrotubule assay); settings: read-out: ITP (inhibition of tubulin polymerization) IC50; tubulin […] (12 μM), 26° C., 20 min
[11] = test system: breast cancer (MCF-7); experiment: In vitro cytotoxicity, MCF-7; settings: Homo sapiens; for IC50: MCF7, 96 h, read-out: ED50 MCF-7; for inhibition at 20 µg/mL: MCF7, read-out: Inhibition at highest test concentration (in brackets), MCF-7
[12] = test system: P-gp-expressing epidermoid carcinoma of the nasopharynx (KB-VIN); experiment: In vitro cytotoxicity, KB-VIN; settings: Homo sapiens, KBVIN, 96 h, read-out: ED50 KB-VIN
[13] = test system: platelet aggregation induced by collagen; experiment: Antiplatelet assay, collagen-induced aggregation; format: cell-based, rabbit
Method: (§1) c. Antiplatelet assay. Blood, collected from the marginal ear vein of rabbits was mixed with EDTA to a final concentration of 6 mM and centrifuged at 90 g for 10 mm at room temperature to obtain platelet-rich plasma. The latter was further centrifuged at 500 g for 10 mm and the platelets were washed with Tyrode's solution without EDTA. After centrifugation at the same conditions, the platelets were suspended in Tyrode's solution with the following compositions (mM): NaCl (136.8), KCl (2.8), NaNCO3(11.9), MgCl2(1.1), NaH2PO4(0.33), CaCl2(1.0), and glucose (11.2). Platelet numbers were determined with a Coulter Counter (Model ZM) and adjusted to 4.5×10^8 platelets/ml.
(§2) Aggregation was measured by the turbidimetric method [O'brien, J. R. J. Clin. Pathol. 1962, 15,452] with a dual-channel Lumi aggregometer (Model 1020, Payton, Canada). All glass ware was siliconized. Test compounds were added one minute before the addition of the aggregation inducer and the platelet suspension was stirred at 900 rpm. The percentage of aggregation was calculated as previously described [Teng, C. M.; Chen, W. Y.; Ko, W. C.; Ouyang, C. Biochem. Biophys. Acta. 1987, 924, 375].

[14] = test system: platelet aggregation induced by thrombin; experiment: Antiplatelet assay, thrombin-induced aggregation; format: cell-based, rabbit; settings: for Percent aggregation, thrombin: thrombin 0.1 U/ml
Method: as §1, §2

[15] = test system: platelet aggregation induced by platelet-activating factor (PAF); experiment: Antiplatelet assay, PAF-induced aggregation; format: cell-based, rabbit; settings: for Percent aggregation, PAF: PAF 2 ng/ml
Method: as §1, §2

[16] = test system: platelet aggregation induced by arachidonic acid (AA); experiment: Antiplatelet assay, arachidonic acid-induced aggregation; format: cell-based, rabbit; settings: for IC50: Oryctolagus cuniculus, Platelet; for IC50 / Percent aggregation, AA: AA 100 μM
Method: as §1, §2

IC50 [10]: 5.6 ± 1 µM
Compound: COc1cccc(C2NC(=O)c3ccccc3N2)c1 (racemic) [Compound 61, 2,3-Dihydro-2-(3′-methoxyphenyl)-4-quinazolinone]
IC50 [1]: > 20 µg/mL
inhibition at 20 µg/mL [1]: 35%
IC50 [2]: 1.5 µg/mL (≈ 5.9 µM)
IC50 [3]: 3 µg/mL (≈ 11.8 µM)
IC50 [4]: > 20 µg/mL
inhibition at 20 µg/mL [4]: 43%
IC50 [5]: > 20 µg/mL
inhibition at 20 µg/mL [5]: 42%
IC50 [6]: 1 µg/mL (≈ 3.93 µM)
IC50 [7]: > 20 µg/mL
inhibition at 20 µg/mL [7]: 49%
Times more active than 2′-methoxy (60) ([8]; more sensitive cell lines): about 15 times
Times more active than 4′-methoxy (62) ([8]; more sensitive cell lines): ~20 times
IC50 [9]: 3 µg/mL (≈ 11.8 µM)
IC50 [11]: > 20 µg/mL
inhibition at 20 µg/mL [11]: 48%
IC50 [12]: 1.2 µg/mL (≈ 4.72 µM)

IC50 ([13]; Oryctolagus cuniculus, Platelet, collagen 10 μg/ml, read-out: IC50, collagen-induced platelet aggregation (Table 5)): 9.2 µM
IC50 ([16]; 37° C., 1 min preincubation, read-out: IC50, platelet aggregation induced by arachidonic acid (in vitro) (Table 6)): 1600 nM
IC50 ([16]; read-out: IC50, AA-induced platelet aggregation (Table 5)): 1600 nM
Compound: CCOc1nc(-c2ccccc2)nc2ccccc12 [Compound 70, 4-Ethoxy-2-phenylquinazoline]
Inhibition of collagen-induced platelet aggregation in words ([13]; Table 5): relatively stronger inhibitors
Percent aggregation, collagen ([13]; compound 0.1 μg/ml, collagen 10 μg/ml): 86.4 ± 2.9(4) %
Percent aggregation, collagen ([13]; compound 0.2 μg/ml, collagen 10 μg/ml): 78.5 ± 4.7(4) %
Percent aggregation, collagen ([13]; compound 0.5 μg/ml, collagen 10 μg/ml): 63.9 ± 7.4(4) %
Percent aggregation, collagen ([13]; compound 1 μg/ml, collagen 10 μg/ml): 47.1 ± 6.6(4) %
Percent aggregation, collagen ([13]; compound 2 μg/ml, collagen 10 μg/ml): 35.0 ± 10.3(4) %
Percent aggregation, collagen ([13]; compound 5 μg/ml, collagen 10 μg/ml): 30.1 ± 9.0(4) %
Percent aggregation, collagen ([13]; compound 10 μg/ml, collagen 10 μg/ml): 19.3 ± 9.8(4) %
Percent aggregation, collagen ([13]; compound 20 μg/ml, collagen 10 μg/ml): 10.3 ± 6.0(4) %
Percent aggregation, collagen ([13]; compound 50 μg/ml, collagen 10 μg/ml): 0.0 ± 0.0(4) %
Percent aggregation, collagen ([13]; compound 100 μg/ml, collagen 10 μg/ml): 0.0 ± 0.0(4) %
Inhibition of thrombin-induced platelet aggregation in words ([14]; Table 5): poor inhibitors
Percent aggregation, thrombin ([14]; compound 20 μg/ml): 91.5 ± 1.2(4) %
Percent aggregation, thrombin ([14]; compound 50 μg/ml): 75.1 ± 7.3(4) %
Percent aggregation, thrombin ([14]; compound 100 μg/ml, 37° C., 1 min preincubation): 11.7 ± 6.5(4) %
Inhibition of PAF-induced platelet aggregation in words ([15]; Table 5): poor inhibitors
Percent aggregation, PAF ([15]; compound 20 μg/ml): 88.8 ± 1.0(4) %
Percent aggregation, PAF ([15]; compound 50 μg/ml): 19.8 ± 7.0(4) %
Percent aggregation, PAF ([15]; compound 100 μg/ml): 2.1 ± 1.8(4) %
Inhibition of AA-induced platelet aggregation in words ([16]; Table 5): relatively stronger inhibitors
Percent aggregation, AA ([16]; compound 0.1 μg/ml): 85.5 ± 2.0(5) %
Percent aggregation, AA ([16]; compound 0.2 μg/ml): 76.9 ± 5.4(5) %
Percent aggregation, AA ([16]; compound 0.5 μg/ml): 33.8 ± 13.4(5) %
Percent aggregation, AA ([16]; compound 1 μg/ml): 0.0 ± 0.0(5) %
Percent aggregation, AA ([16]; compound 100 μg/ml): 0.0 ± 0.0(5) %

Further lines, the molecule ahead of its results:

Compound: COc1cccc(C2NC(=O)c3cc(Cl)ccc3N2)c1 (racemic) [Compound 68, 2,3-Dihydro-2-(3′-methoxyphenyl)-6-chloro-4-quinazolinone]
IC50 [1]: > 20 µg/mL
inhibition at 20 µg/mL [1]: 37%
IC50 [2]: 0.48 µg/mL (≈ 1.66 µM)
IC50 [3]: 0.6 µg/mL (≈ 2.08 µM)
IC50 [4]: 2.5 µg/mL (≈ 8.66 µM)
IC50 [5]: 20 µg/mL (≈ 69.3 µM)
IC50 [6]: 0.27 µg/mL (≈ 0.935 µM)
IC50 [7]: < 2.5 µg/mL
Inhibition value of plateau-dose response (in brackets), SKMEL-2 ([7]; plateau-dose response, inhibition plateaus over broad dose range): 56%
ED50, times less than that of 61 [8]: about 5 times
IC50 [9]: 0.95 µg/mL (≈ 3.29 µM)
IC50 [10]: 1.5 ± 0.01 µM
IC50 [11]: 16 µg/mL (≈ 55.4 µM)
IC50 [12]: 0.42 µg/mL (≈ 1.45 µM)

Compound: COc1cc(OC)cc(C2NC(=O)c3ccccc3N2)c1 (racemic) [Compound 67, 2,3-Dihydro-2-(3′,5′-dimethoxyphenyl)-4-quinazolinone]
IC50 [1]: > 20 µg/mL
inhibition at 20 µg/mL [1]: 37%
IC50 [2]: 3 µg/mL (≈ 10.6 µM)
IC50 [3]: 5 µg/mL (≈ 17.6 µM)
IC50 [4]: > 20 µg/mL
inhibition at 20 µg/mL [4]: 44%
IC50 [5]: > 20 µg/mL
inhibition at 20 µg/mL [5]: 41%
IC50 [6]: 1.92 µg/mL (≈ 6.75 µM)
IC50 [7]: 4.4 µg/mL (≈ 15.5 µM)
IC50 [9]: 4.7 µg/mL (≈ 16.5 µM)
IC50 [10]: 12 ± 3 µM
IC50 [11]: > 20 µg/mL
inhibition at 20 µg/mL [11]: 49%
IC50 [12]: 1.6 µg/mL (≈ 5.63 µM)

Compound: COc1ccc(OC)c(C2NC(=O)c3ccccc3N2)c1 (racemic) [Compound 65, 2,3-Dihydro-2-(2′,5′-dimethoxyphenyl)-4-quinazolinone]
IC50 [1]: > 20 µg/mL
inhibition at 20 µg/mL [1]: 5%
IC50 [2]: > 20 µg/mL
inhibition at 20 µg/mL ([2]; HCT-8, read-out: Inhibition at highest test concentration (in brackets), HCT-8): 32%
IC50 [3]: > 20 µg/mL
inhibition at 20 µg/mL ([3]; A549, read-out: Inhibition at highest test concentration (in brackets), A-549): 42%
IC50 [4]: > 20 µg/mL
inhibition at 20 µg/mL [4]: 22%
IC50 [5]: > 20 µg/mL
inhibition at 20 µg/mL [5]: 40%
IC50 [6]: 10 µg/mL (≈ 35.2 µM)
IC50 [7]: > 20 µg/mL
inhibition at 20 µg/mL [7]: 44%
IC50 [9]: > 20 µg/mL
inhibition at 20 µg/mL ([9]; read-out: Inhibition at highest test concentration (in brackets), KB): 40%
IC50 [10]: 32 ± 4 µM
IC50 [11]: > 20 µg/mL
inhibition at 20 µg/mL [11]: 42%
IC50 [12]: 8.4 µg/mL (≈ 29.5 µM)
